Test results: patent publication US10597388B2, “Pyridazinone herbicides” (FMC CORPORATION, priority 2014, dated 2020)

Tests used:
Assay in all cases: Test E greenhouse herbicide test, pre- and postemergence
Format in all cases: in vivo
[1] = tested on: Italian ryegrass (Lolium multiflorum)
In short: (§1)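 Compounds in surfactant-containing solvent are applied to soil right after sowing (silt loam) and, in parallel, to 1- to 4-leaf plants in a peat-based medium. Weed control is scored visually on a 0 (none) to 100 (complete) scale at 14 to 21 d.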

[2] = tested on: barnyardgrass (Echinochloa crus-galli)
In short: as §1

[3] = tested on: corn (Zea mays)
In short: as §1

[4] = tested on: crabgrass, Brazilian (Brazilian crabgrass, Digitaria horizontalis)
In short: as §1

[5] = tested on: crabgrass, large (large crabgrass, Digitaria sanguinalis); conditions: Preemergence
In short: as §1

[6] = tested on: foxtail, green (green foxtail, Setaria viridis); conditions: Preemergence
In short: as §1

[7] = tested on: goosegrass (Eleusine indica); conditions: Preemergence
In short: as §1

[8] = tested on: johnsongrass (Sorghum halepense); conditions: Preemergence
In short: as §1

[9] = tested on: kochia (Kochia scoparia)
In short: as §1

[10] = tested on: nutsedge, yellow (yellow nutsedge, Cyperus esculentus); conditions: Preemergence
In short: as §1

[11] = tested on: pigweed, palmer (palmer pigweed, Amaranthus palmeri)
In short: as §1

[12] = tested on: ragweed (common ragweed, Ambrosia elatior)
In short: as §1

[13] = tested on: sandbur (southem sandbur, Cenchrus echinatus)
In short: as §1

[14] = tested on: surinam grass (Brachiaria decumbens); conditions: Preemergence
In short: as §1

[15] = tested on: velvetleaf (Abutilon theophrasti); conditions: Preemergence
In short: as §1

[16] = tested on: waterhemp (common waterhemp, Amaranthus rudis)
In short: as §1

[17] = 62 g ai/ha, Preemergence, scale 0 to 100 (0 no effect, 100 complete control)
[18] = 125 g ai/ha, Preemergence, scale 0 to 100 (0 no effect, 100 complete control)
[19] = Preemergence, 31 g ai/ha, scale 0 to 100, 0 no effect, 100 complete control
[20] = Preemergence, 250 g ai/ha, visual, scale 0 no effect to 100 complete control
[21] = Preemergence, 125 g ai/ha, visual, scale 0 no effect to 100 complete control
[22] = 62 g ai/ha, scale 0 to 100 (0 no effect, 100 complete control)
[23] = 31 g ai/ha, scale 0 to 100, 0 no effect, 100 complete control
[24] = 125 g ai/ha, visual, scale 0 no effect to 100 complete control
[25] = 250 g ai/ha, visual, scale 0 no effect to 100 complete control
[26] = 125 g ai/ha, scale 0 to 100 (0 no effect, 100 complete control)
[27] = 62 g ai/ha, Postemergence, scale 0 to 100 (0 no effect, 100 complete control)
[28] = 125 g ai/ha, Postemergence, scale 0 to 100 (0 no effect, 100 complete control)
[29] = Postemergence, 16 g ai/ha, visual, scale 0 no effect to 100 complete control
[30] = Postemergence, 31 g ai/ha, visual, scale 0 no effect to 100 complete control

SMILES: Cc1ccc2ccccc2c1-c1c(O)c(C)nn(C)c1=O [Compound 59]
- Plant response rating, Ryegrass, Italian [1, 17]: 100
- Plant response rating, Ryegrass, Italian [1, 18]: 100
- Plant response rating, Ryegrass, Italian [1, 19]: 100
- Plant response rating, Ryegrass, Italian [1, 20]: 100
- Plant response rating, Barnyardgrass [2, 17]: 25
- Plant response rating, Barnyardgrass [2, 19]: 0
- Plant response rating, Barnyardgrass [2, 21]: 60
- Plant response rating, Barnyardgrass [2, 20]: 90
- Plant response rating, Corn [3, 17]: 0
- Plant response rating, Corn [3, 19]: 0
- Plant response rating, Corn [3, 21]: 0
- Plant response rating, Corn [3, 20]: 20
- Plant response rating, Crabgrass, Brazil [4, 17]: 90
- Plant response rating, Crabgrass, Brazil [4, 19]: 60
- Plant response rating, Crabgrass, Brazil [4, 21]: 100
- Plant response rating, Crabgrass, Brazil [4, 20]: 100
- Plant response rating, Crabgrass, Large [5, 22]: 50
- Plant response rating, Crabgrass, Large [5, 23]: 0
- Plant response rating, Crabgrass, Large [5, 24]: 80
- Plant response rating, Crabgrass, Large [5, 25]: 95
- Plant response rating, Foxtail, Green [6, 22]: 90
- Plant response rating, Foxtail, Green [6, 23]: 65
- Plant response rating, Foxtail, Green [6, 24]: 95
- Plant response rating, Foxtail, Green [6, 25]: 100
- Plant response rating, Goosegrass [7, 22]: 95
- Plant response rating, Goosegrass [7, 23]: 90
- Plant response rating, Goosegrass [7, 24]: 98
- Plant response rating, Goosegrass [7, 25]: 98
- Plant response rating, Johnsongrass [8, 22]: 25
- Plant response rating, Johnsongrass [8, 23]: 0
- Plant response rating, Johnsongrass [8, 24]: 80
- Plant response rating, Johnsongrass [8, 25]: 80
- Plant response rating, Kochia [9, 17]: 90
- Plant response rating, Kochia [9, 19]: 80
- Plant response rating, Kochia [9, 21]: 100
- Plant response rating, Kochia [9, 20]: 100
- Plant response rating, Nutsedge, Yellow [10, 22]: 35
- Plant response rating, Nutsedge, Yellow [10, 26]: 75
- Plant response rating, Nutsedge, Yellow [10, 23]: 50
- Plant response rating, Nutsedge, Yellow [10, 25]: 70
- Plant response rating, Pigweed, Palmer [11, 17]: 98
- Plant response rating, Pigweed, Palmer [11, 18]: 100
- Plant response rating, Pigweed, Palmer [11, 19]: 95
- Plant response rating, Pigweed, Palmer [11, 20]: 100
- Plant response rating, Ragweed [12, 17]: 95
- Plant response rating, Ragweed [12, 18]: 100
- Plant response rating, Ragweed [12, 19]: 100
- Plant response rating, Ragweed [12, 20]: 100
- Plant response rating, Sandbur [13, 17]: 70
- Plant response rating, Sandbur [13, 18]: 90
- Plant response rating, Sandbur [13, 19]: 70
- Plant response rating, Sandbur [13, 20]: 90
- Plant response rating, Surinam Grass [14, 22]: 90
- Plant response rating, Surinam Grass [14, 26]: 100
- Plant response rating, Surinam Grass [14, 23]: 85
- Plant response rating, Surinam Grass [14, 25]: 100
- Plant response rating, Velvetleaf [15, 22]: 95
- Plant response rating, Velvetleaf [15, 26]: 95
- Plant response rating, Velvetleaf [15, 23]: 90
- Plant response rating, Velvetleaf [15, 25]: 98
- Plant response rating, Waterhemp [16, 17]: 100
- Plant response rating, Waterhemp [16, 18]: 100
- Plant response rating, Waterhemp [16, 19]: 75
- Plant response rating, Waterhemp [16, 20]: 100

SMILES: CC(=O)Oc1c(C)nn(C)c(=O)c1-c1ccc(F)c2ccccc12 [Compound 90]
- Plant response rating, Ryegrass, Italian [1, 27]: 85
- Plant response rating, Ryegrass, Italian [1, 28]: 85
- Plant response rating, Ryegrass, Italian [1, 29]: 75
- Plant response rating, Ryegrass, Italian [1, 30]: 80
- Plant response rating, Barnyardgrass [2, 27]: 40
- Plant response rating, Barnyardgrass [2, 28]: 50
- Plant response rating, Barnyardgrass [2, 29]: 30
- Plant response rating, Barnyardgrass [2, 30]: 30
- Plant response rating, Corn [3, 27]: 5
- Plant response rating, Corn [3, 28]: 0
- Plant response rating, Corn [3, 29]: 5
- Plant response rating, Corn [3, 30]: 0
- Plant response rating, Crabgrass, Brazil [4, 27]: 50
- Plant response rating, Crabgrass, Brazil [4, 28]: 70
- Plant response rating, Crabgrass, Brazil [4, 29]: 50
- Plant response rating, Crabgrass, Brazil [4, 30]: 55
- Plant response rating, Kochia [9, 27]: 95
- Plant response rating, Kochia [9, 28]: 100
- Plant response rating, Kochia [9, 29]: 90
- Plant response rating, Kochia [9, 30]: 90
- Plant response rating, Pigweed, Palmer [11, 27]: 50
- Plant response rating, Pigweed, Palmer [11, 28]: 60
- Plant response rating, Pigweed, Palmer [11, 29]: 40
- Plant response rating, Pigweed, Palmer [11, 30]: 65
- Plant response rating, Ragweed [12, 27]: 80
- Plant response rating, Ragweed [12, 28]: 90
- Plant response rating, Ragweed [12, 29]: 50
- Plant response rating, Ragweed [12, 30]: 75
- Plant response rating, Sandbur [13, 28]: 50
- Plant response rating, Sandbur [13, 29]: 40
- Plant response rating, Sandbur [13, 30]: 40
- Plant response rating, Waterhemp [16, 28]: 90
- Plant response rating, Waterhemp [16, 29]: 50
- Plant response rating, Waterhemp [16, 30]: 70
